Experimental data from a melting point compilation (Tetko et al.; mined from patent text by program, amines drawn as free bases though some values may be those of a salt).

| SMILES | melting point [°C] |
| --- | --- |
| CCOC(=O)c1cc(CC)sc1Nc1c(Cl)cccc1[N+](=O)[O-] | 67 to 70 |
| FC(F)(F)c1[nH]c(-c2ccc(Cl)cc2)cc1-c1csc(Br)c1 | 112 to 115 |
| CCC(=O)c1ccc(CN2C(=O)c3ccccc3C2=O)s1 | 104 to 106 |
| O=C(O)c1[nH]c2cc(Cl)cc(Cl)c2c1C=C1CC(=O)N(c2ccccc2)C1=O | > 250 |
| CCOC(=O)c1cc(-c2ccccc2)nn1Cc1ccc(Cl)cc1Cl | 104 to 107 |
| OC1OC(C2(c3ccccc3)CN2)N2CC12c1ccccc1 (stereo unspecified) | 53 to 55 |
| CC1CN(c2nnc(N3CC(C)OC(C)C3)c3cc(-c4ccccc4)ncc23)CC(C)O1 (stereo unspecified) | 248 to 250 |
| CC(C#N)=C1CCN(c2ccc(N3C[C@@H](CNNCC(=O)O)OC3=O)cc2F)CC1 | 141 to 142 |
| C1=CCN(C(c2ccccc2)c2ccccc2)C1 | 90 to 91 |
| COc1cc(-n2c(-c3ccc(SC)cc3)nc(SC)c(C#N)c2=O)cc(OC)c1OC | 192 to 195 |
| Cc1ncc2n1-c1ccc(Cl)cc1C(c1ccccc1)=[N+]([O-])C2 | 260 to 261 |
| Cc1cc(-c2cc(C(F)(F)F)n3ncc(-c4ccnc(CO)c4)c3n2)ccc1C(F)(F)F | 231 |
| COC(=O)c1ccc(-c2nccc3ccn(S(=O)(=O)c4ccc(OC)cc4)c23)cc1 | 144 to 146 |
| O=Cc1ccc(-c2nc(Oc3ccccc3)cc(Oc3ccccc3)n2)cc1 | 143 to 145 |
| COc1ccc2c(c1)CCC1CCNC(=O)C(CCl)=C21 (stereo unspecified) | 135 to 138 |
| Cc1noc(NS(=O)(=O)c2ccsc2C(=O)Nc2cccc(C(=O)O)c2)c1Br | 183 to 185 |
| Cc1c(-c2ccccc2)sc(N2C(=O)c3ccccc3C2=O)c1C(=O)c1ccc(Cl)cc1 | 223 to 225 |
| CCOC(=O)c1cc(NC(=O)C(CSC(C)=O)Cc2ccc(Cl)cc2)c[nH]1 (stereo unspecified) | 141 to 144 |
| CC(=O)N1CCc2cc(C(O)CN(Cc3ccccc3)Cc3ccccc3)ccc21 (stereo unspecified) | 116 |
| Cc1ccc(C(=O)Nc2ccc(C)c(-c3nc(N(C)C)nc4c3CNC(=O)N4c3c(F)cccc3F)c2)cc1F | 258 to 264 |
| CC(C)c1cn2ccccc2c1S(=O)(=O)c1ccc(OCCCN2CCN(C(c3ccccc3)c3ccccc3)CC2)cc1 | 170 |

| SMILES | melting point [°C] |
| --- | --- |
| O=C(NC(=O)c1c(F)cccc1F)Nc1cccc(S(=O)(=O)C(F)(F)C(F)Cl)c1 (stereo unspecified) | 192 to 194 |
| COc1cccc(OC)c1-c1cc(C(=O)NC2(C(=O)O)C3CC4CC(C3)CC2C4)nn1-c1ccnc2cc(Cl)ccc12 (stereo unspecified) | > 260 |
| N#CCCNC(=O)c1cccc(-c2ccc3c(c2)N(Cc2cccc(Cl)c2Cl)CC3)c1 | 160 to 161 |
| Cc1ccc(Cn2ccc3cc(Br)ccc32)cc1 | 56 to 57 |
| CCCCOC(=O)N(C)C(CNC(=O)CC1CC(c2ccc(C#N)cc2)=NO1)C(=O)O (stereo unspecified) | 154 to 156 |
| CC#CCOc1cccc(S(=O)(=O)N(C)C(C(=O)NO)c2ccc(OCCCNC(=O)OCC)cc2)c1 (stereo unspecified) | 60 to 62 |
| COc1ccc2c(c1)CN(C=O)N=C2Cc1c(Cl)cncc1Cl | 165 to 167 |
| CC(C)(C)c1cc(CCC(=O)O)cc(-n2nc3ccc(Sc4ccccc4)cc3n2)c1O | 154 to 156 |
| Cc1ccc2c(C(=O)O)cn(C(C)C)c2c1 | 185 to 186 |
| O=C(/C=C/[C@@H]1[C@H]2CC(=O)O[C@H]2C[C@H]1OC(=O)c1ccccc1)CCc1ccccc1 | 119 to 120 |
| CCOC(=O)Cn1nnnc1S(=O)(=O)c1ccc(C)cc1 | 98 to 100 |
| CP(C)(=O)C1CC(c2ccccc2)=NO1 (stereo unspecified) | 153 |
| COC(=O)c1cccc2c1CN(c1c(F)cc3c(=O)c(C(=O)O)cn(-c4ccc(F)cc4)c3c1F)C2 | 283 to 287 |
| CCn1c(=O)n(O)c(=O)c2cc(F)c(N3CCN(C)CC3)cc21 | 132 to 134 |
| O=c1[nH]nc(-c2cc(C(F)(F)F)cc(C(F)(F)F)c2)n1-c1cc(Cl)ccc1O | 275 to 278 |
| N#Cc1ccc(Oc2ccccc2N)cc1C#N | 118 |
| COc1ccc(O[C@@H]2CCNC[C@H]2O)cc1 (relative stereo) | 171 to 173 |
| COc1cccc(-c2cc(C#N)c(SC)[nH]2)c1 | 112 to 113 |
| CCCCCCCCCCCCCCCCCCOc1cccc(N(CC(=O)O)CC(=O)O)c1 | 130 to 133 |
| COc1cc(Nc2c(C#N)cnc3cc4cc(OC)c(OCCN5CCOCC5)cc4cc23)c(Cl)cc1C | 240 to 241 |
| CN(Cc1ccc(NC(=O)C2=Cc3cc(-c4ccc(N5CCOCC5)cc4)ccc3N(C=O)CC2)cc1)C1CCOCC1 | 234 to 243 |

Next, values leading:

| melting point [°C] | SMILES |
| --- | --- |
| 164 to 165 | CC(=O)Nc1cccc(OCC(O)CNCCOc2ccc(C(N)=O)cc2)c1 (stereo unspecified) |
| 201 to 202 | CC1CC2C3CCC4=CC(=O)C=CC4(C)C3C(=O)CC2(C)C1C(=O)COC(=O)C(C)(C)C (stereo unspecified) |
| 99 to 101 | CCCCOC(=O)N(C)S(=O)(=O)c1cc([N+](=O)[O-])c(N(CCC)CCC)c([N+](=O)[O-])c1 |
| 106 to 107 | COc1cc(COc2cc(CO)n(-c3ccccc3)n2)ccc1OCc1nc(-c2ccco2)oc1C |
| 88 to 92 | Cn1c(COc2ccc(CC3SC(=O)N(C(c4ccccc4)(c4ccccc4)c4ccccc4)C3=O)cc2)nc2ccc(OCc3ccccc3)nc21 (stereo unspecified) |
| 222 to 224 | N#Cc1ccc(C(=O)N2CCN(NC(=O)c3ccc(F)cc3)CC2)cc1 |
| 245 to 247 | CC1C(=O)Nc2c(C(=O)c3ccc(Br)cc3)cccc21 (stereo unspecified) |
| 149 to 150 | Cc1ccccc1C(=O)c1ccc(Nc2ccccc2NC(=O)CO)cc1F |
| 182 to 186 | CC1(C(=O)C(C(O)C(Cl)(Cl)CCl)n2cncn2)CC1 (stereo unspecified) |
| 158 to 159 | CCOC(=O)COc1cccc(C(N)=O)c1 |
| 160 to 161 | COC(=O)c1ccc(-c2nc(-c3ccc(OC(F)F)cc3)co2)cc1 |
| 219 to 220 | CNc1ncnc2c1ncn2Cc1c(Cl)cccc1Cl |
| 292 to 294 | Nc1nc(Oc2ccc(O)cc2)nc2nc(-c3ccco3)nn12 |
| 245 to 247 | NC(=O)NC(=O)c1ccncc1 |
| 70 to 72 | CCOC(=O)C(=CNc1cc(C)nn1-c1ccccc1)C(=O)OCC |
| 170 to 171 | CC(=O)Nc1ccc(C(C)(C)C(=O)O)cc1 |
| 129 to 130 | CC(=O)Nc1cc(N2CCN(C(=O)OC(C)(C)C)CC2)ccc1S(=O)(=O)c1ccccc1 |
| 144 to 146 | COc1ccc(CCNS(=O)(=O)c2ccc(N)cc2)cc1 |
| 201 | CC(C)(C)OC(=O)Nc1cc(OC(C)(C)C)c(C#Cc2ccc(F)cc2)cc1[N+](=O)[O-] |
| 92 to 94 | CCOC(=O)C1=C(C)NC(CSc2ccccc2)=C(C(=O)OCC)C1c1cccc([N+](=O)[O-])c1 (stereo unspecified) |
| 204 | CN1CCC(OC2c3ccccc3C(=O)N2c2ccc3ccc(Cl)nc3n2)CC1 (stereo unspecified) |
| 164 to 165 | CCCc1nn(-c2ccc(C(F)(F)F)cn2)cc1CCCOc1cc(CCC(=O)O)n(C2CCCCC2)n1 |
| 101 to 104 | CCOC(=O)c1nccc(N)n1 |
| 128 to 129 | C=CCNc1nc(N)nc2c1ncn2C1CC(F)C(CO)O1 (stereo unspecified) |
